The text below walks through data of patent publication US8912227B1, “Bicyclic pyrrole derivatives useful as agonists of GPR120” (Janssen Pharmaceutica NV, priority 2014, dated 2014).

Experiment [1] addresses T1, Human GPR120 short form (Homo sapiens, UniProt Q5NUL3).
T1 construct: expressed in transfected cells
T1 sequence (Q5NUL3 1-361): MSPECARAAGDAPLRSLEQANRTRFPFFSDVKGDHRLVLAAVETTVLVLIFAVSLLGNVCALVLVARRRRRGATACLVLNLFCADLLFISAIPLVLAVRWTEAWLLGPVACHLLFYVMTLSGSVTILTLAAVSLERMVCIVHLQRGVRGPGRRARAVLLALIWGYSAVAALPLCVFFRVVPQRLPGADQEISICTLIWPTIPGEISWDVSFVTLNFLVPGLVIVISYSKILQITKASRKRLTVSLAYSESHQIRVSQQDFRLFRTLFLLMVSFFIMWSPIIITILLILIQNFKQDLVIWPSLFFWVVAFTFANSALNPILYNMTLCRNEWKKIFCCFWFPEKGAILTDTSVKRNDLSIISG
Put plainly: Human GPR120 calcium flux assay, Procedure Calcium B. The format is cell-based. The following applies: HEK-293 cells expressing human GPR120 short form, 4200 cells/well, FLIPR. The text has this: (§1) This in vitro assay serves to assess test compound agonist activity against the short splice variant (SVS with Accession number NM_001195755.1 confirmed by sequencing data) of the GPR120 receptor. The Human Short splice variant #2 (NM_001195755.1) is missing an in-frame coding exon compared to variant 1 (the Human Long splice variant NM_181745.3), resulting in a shorter isoform (GPR120-S) lacking a 16 aa protein segment compared to isoform GPR120-L. The assay platform utilizes HEK-293 cells stably transfected to express the Human GPR120 short form. These cells are first loaded with the Ca^+2 sensitive dye, Fluo-4 NW. Upon stimulation, intracellular released Ca^+2 can bind to the dye and alter its fluorescence intensity. This increase in fluorescence signal, and thus the flux in intracellular [Ca^2+], is detected and quantitated by fluorescence imaging using a FLIPR reader. The effect of the agonist is measured as a function of concentration and used to calculate an EC50 based upon a response curve.
In this procedure 4200 cells/well were employed.
(§2) A Human GPR120 clone (Genbank accession number NM_001195755.1) was placed into the pcDNA3.1 mammalian expression vector carrying the neomycin resistance gene. A stable mammalian cell was generated by placing the above clone into a HEK293 background. Clonal cells responding to long chain fatty acids had expression levels of GPR120 confirmed by RT-qPCR. Human HEK-GPR120 cells were cultured in Dulbecco's Modified Eagle's Medium (DMEM)/F12 medium supplemented with 10% fetal bovine serum (FBS), 1% L-Glutamine and 1% penicillin/streptomycin and 0.5 mg/ml G-418. Cells were split 2 times a week to keep the cells in the log-phase growth.
(§3) In preparation for the assay, HEK cells stably transfected with Human GPR120 (2.5K cells per well in 25 uL growth medium) were seeded into 384-well plates and then incubated overnight (37° C., 5% CO2). The next day, the media was changed to 20 μl assay buffer and the cell starved for 1 h at 37° C. The dye loading solution (2× dye) was prepared using 10 ml assay buffer, 100 μl of 250 mM probenecid, 1 bottle of Component A, and 20 μl of dye in DMSO. Twenty μl of the 2× dye loading buffer was then added to each well. The plates were incubated at 37° C. for 30 min, then at room temperature for an additional 15 minutes, before performing the assay on FLIPR.
(§4) Test compounds were prepared in assay buffer (2 μl of test compound+198 μl assay buffer, final DMSO in assay plate is 0.2%) at the desired concentration, more particularly at 100 μM, 50 μM, 25 μM, 12.5 μM, 6.25 μM, 3.125 μM, 1.562 μM, 0.781 μM, 0.391 μM, 0.195 μM, 0.098 μM, 0.049 μM, 0.024 μM and 0.012 μM.
(§5) The assay was performed on a FLIPR plate reader using the following parameters. Baseline was read for 10 seconds at 1 sec intervals. The program was set to transfer 10 μL of ligand from compound plate to cell plate after baseline reading. Aspiration was executed at: 10 μl/sec speed, 4.6 μl height; Dispensing was executed at: 30 μl/sec speed, 45 μl height. After compound addition, each well was read for 300 sec, with measurements collected at 1 sec intervals.
(§6) The kinetic data from the FLIPR was based upon a 5 minute window for data collection. The fluorescence of each sample well was used for individual calculations of a normalized RFU value, which was defined as maximum response minus the minimum response. The normalized fluorescence reading (RFU) was calculated as follows: RFU=Fmax−Fmin
(§7) The data were fitted to a sigmoidal dose-response curve with a variable Hill slope (<2) using nonlinear regression with GraphPad Prism 5.0 to calculate the EC50 values. The Fitting Equation was: Y=Bottom+(Top−Bottom)/(1+10^((LogEC50−X)*HillSlope)), where X is the log of the concentration and Y is the response.
A general note: Calcium assays in cells follow changes in intracellular calcium, usually with a dye or a luminescent sensor.

The target of experiment [2] is T1, Human GPR120 short form. Put plainly: Human GPR120 calcium flux assay, Procedure Calcium A. The format is cell-based. To be noted: HEK-293 cells expressing human GPR120 short form, 2500 cells/well, FLIPR.
Description: as §1
In this procedure 2500 cells/well were employed.
as §2, §3, §4, §5, §6, §7

pEC50: −log10 of the molar value.

`Cc1c(CCCO)ccc(OCc2c(Cl)ccn2-c2ccc(Cl)cc2)c1C` [Compound 7, 3-(4-{[3-Chloro-1-(4-chlorophenyl)-1H-pyrrol-2-yl]methoxy}-2,3-dimethylphenyl)propan-1-ol]: the pEC50 (usually the EC50 on a negative log10 scale, so that one unit is a factor of ten) in experiment [1] was 5.93; in experiment [2], 5.76.
Taken in the same sequence, the figures for `COc1ccc(-n2ccc(C(F)(F)F)c2COc2c(F)cc(CCCO)cc2F)cn1` [Compound 52, 3-(3,5-difluoro-4-[[1-(6-methoxypyridin-3-yl)-3-(trifluoromethyl)-1H-pyrrol-2-yl]methoxy]phenyl)propan-1-ol] were 7.15 and 6.55.
On to `CCc1ccc(-n2cccc2COc2ccc(CCC(=O)O)c(C)c2C)cc1` [Compound 2, 3-(4-{[1-(4-Ethylphenyl)-1H-pyrrol-2-yl]methoxy}-2,3-dimethylphenyl)propanoic acid], for which the pEC50 in experiment [2] was below 4.70.
`O=C(O)CCc1cc(F)c(OCc2c(C(F)(F)F)ccn2-c2ccc(F)cc2)c(F)c1` [Compound 87, 3-(3,5-Difluoro-4-{[1-(4-fluorophenyl)-3-(trifluoromethyl)-1H-pyrrol-2-yl]methoxy}phenyl)propanoic acid]: in experiment [1], the pEC50 is 6.87.
The same measure, in the same setting: the value for `O=C(O)CCc1cc(F)c(OCc2c(C(F)(F)F)ccn2-c2cccc(F)c2)c(F)c1` [Compound 85, 3-(3,5-Difluoro-4-{[1-(3-fluorophenyl)-3-(trifluoromethyl)-1H-pyrrol-2-yl]methoxy}phenyl)propanoic acid] was 6.35.
As for `CCc1ccc(-n2ccc(C(F)(F)F)c2COc2c(F)cc(CCCO)cc2F)cn1` [Compound 55, 3-(4-[[1-(6-ethylpyridin-3-yl)-3-(trifluoromethyl)-1H-pyrrol-2-yl]methoxy]-3,5-difluorophenyl)propan-1-ol], the pEC50 is 7.47 in experiment [1] and 6.67 in experiment [2].
Taken in the same sequence, the figures for `COc1ccc(-n2ccc(C(F)(F)F)c2COc2ccc(CCCO)c(F)c2F)cn1` [Compound 50, 3-(2,3-difluoro-4-[[1-(6-methoxypyridin-3-yl)-3-(trifluoromethyl)-1H-pyrrol-2-yl]methoxy]phenyl)propan-1-ol] were 7.24 and 6.40.
For the compound `O=C(O)CCc1ccc(OCc2c(C(F)(F)F)ccn2-c2cccc(F)c2)cc1C(F)(F)F` [Compound 81, 3-[4-{[1-(3-Fluorophenyl)-3-(trifluoromethyl)-1H-pyrrol-2-yl]methoxy}-2-(trifluoromethyl)phenyl]propanoic acid], in experiment [1], the negative-log EC50 (pEC50) was 6.17.
Same read-out and setting: for `O=C(O)CCc1cc(F)c(OCc2c(C(F)(F)C(F)(F)F)ccn2-c2ccc(Cl)cc2)c(F)c1` [Compound 63, 3-(4-((1-(4-chlorophenyl)-3-(perfluoroethyl)-1H-pyrrol-2-yl)methoxy)-3,5-difluorophenyl)propanoic acid] the value was 5.94.
Turning to `COc1ccc(-n2ccc(C(F)(F)F)c2COc2c(F)cc(CCC(=O)O)cc2F)cn1` [Compound 51, 3-(3,5-difluoro-4-[[1-(6-methoxypyridin-3-yl)-3-(trifluoromethyl)-1H-pyrrol-2-yl]methoxy]phenyl)propanoic acid], the negative-log EC50 (pEC50) was 6.71 in experiment [1] and 6.17 in experiment [2].
On to `Cc1c(CCCO)ccc(OCc2c(C(F)(F)F)ccn2-c2ccc(Br)cc2)c1C` [Compound 18, 3-(4-{[1-(4-Bromophenyl)-3-(trifluoromethyl)-1H-pyrrol-2-yl]methoxy}-2,3-dimethylphenyl)propan-1-ol], for which the pEC50 in experiment [1] is 6.21; in experiment [2], 5.88.
Taken in the same sequence, the figures for `Cc1c(CCC(=O)O)ccc(OCc2c(C(F)(F)F)ccn2-c2ccc(Br)cc2)c1C` [Compound 23, 3-(4-{[1-(4-Bromophenyl)-3-(trifluoromethyl)-1H-pyrrol-2-yl]methoxy}-2,3-dimethylphenyl)propanoic acid] were 6.70 and 5.95.
Taken in the same sequence, the figures for `Cc1c(CCCO)ccc(OCc2c(Br)ccn2-c2ccc(Cl)cc2)c1C` [Compound 13, 3-(4-{[3-Bromo-1-(4-chlorophenyl)-1H-pyrrol-2-yl]methoxy}-2,3-dimethylphenyl)propan-1-ol] were 6.05 and 5.81.
Consider `Cc1ccc(-n2ccc(C(F)(F)F)c2COc2ccc(CCCO)c(C)c2C)cc1` [Compound 45, 3-(2,3-dimethyl-4-[[1-(4-methylphenyl)-3-(trifluoromethyl)-1H-pyrrol-2-yl]methoxy]phenyl)propan-1-ol], for which the negative-log EC50 (pEC50) in experiment [1] was 6.29; in experiment [2], 5.84.
As for `O=C(O)CCc1ccc(OCc2cccn2-c2ccc(Cl)cc2)c(F)c1F` [Compound 4, 3-(4-{[1-(4-Chlorophenyl)-1H-pyrrol-2-yl]methoxy}-2,3-difluorophenyl)propanoic acid], in experiment [2], the pEC50 is below 4.70.
As to `Cc1c(CCC(=O)O)ccc(OCc2c(C(F)(F)F)ccn2-c2cccc(F)c2)c1C` [Compound 84, 3-(4-{[1-(3-Fluorophenyl)-3-(trifluoromethyl)-1H-pyrrol-2-yl]methoxy}-2,3-dimethylphenyl)propanoic acid], in experiment [1], the pEC50 is 6.31.
The same measure, in the same setting: for `O=C(O)CCc1ccc(OCc2c(C(F)(F)F)ccn2-c2ccc(F)cc2)cc1Cl` [Compound 80, 3-(2-Chloro-4-{[1-(4-fluorophenyl)-3-(trifluoromethyl)-1H-pyrrol-2-yl]methoxy}phenyl)propanoic acid] the value was 6.03.
On the same count and under the same terms, the value for `Cc1cc(CCC(=O)O)ccc1OCc1c(C(F)(F)F)ccn1-c1cccc(F)c1` [Compound 88, 3-(4-{[1-(3-Fluorophenyl)-3-(trifluoromethyl)-1H-pyrrol-2-yl]methoxy}-3-methylphenyl)propanoic acid] was 6.39; that for `Cc1cc(CCC(=O)O)ccc1OCc1c(C(F)(F)F)ccn1-c1ccc(F)cc1` [Compound 86, 3-(4-{[1-(4-Fluorophenyl)-3-(trifluoromethyl)-1H-pyrrol-2-yl]methoxy}-3-methylphenyl)propanoic acid] was 6.55.
The same measure, in the same setting: for `O=C(O)CCc1ccc(OCc2c(C(F)(F)F)ccn2-c2ccc(F)cc2)cc1C(F)(F)F` [Compound 82, 3-[4-{[1-(4-Fluorophenyl)-3-(trifluoromethyl)-1H-pyrrol-2-yl]methoxy}-2-(trifluoromethyl)phenyl]propanoic acid] the value was 6.08.
On to `O=C(O)CCc1ccc(OCc2c(C(F)(F)F)ccn2-c2cccc(F)c2)cc1Cl` [Compound 79, 3-(2-Chloro-4-{[1-(3-fluorophenyl)-3-(trifluoromethyl)-1H-pyrrol-2-yl]methoxy}phenyl)propanoic acid], for which, in experiment [1], the pEC50 was 6.00.
The same measure, in the same setting: for `Cc1c(CCC(=O)O)ccc(OCc2c(C(F)(F)F)ccn2-c2ccc(F)cc2)c1C` [Compound 83, 3-(4-{[1-(4-Fluorophenyl)-3-(trifluoromethyl)-1H-pyrrol-2-yl]methoxy}-2,3-dimethylphenyl)propanoic acid] the value was 6.46.
